Earlier results as cited in patent US20100012894A1, “Tooth Whitening Compositions and Methods” (priority 2008, published 2010).

Details: at six months; concentrations 16%-18% carbamide peroxide (Brunton et al., 2004)

For `NC(N)=O.OO` [carbamide peroxide], the rebound is listed as 40 % of patients.
